Measurements published in patent publication US20240156744A1, “METHOD OF APPLYING ELECTRICAL IMPULSES FOR THE PURPOSE OF LOADING VARIOUS MOLECULES INTO PLANT-DERIVED NANOVESICLES” (EXO LAB ITALIA, S.r.l., priority 2021, published 2024).

What was measured:
[1] = system: drug-resistant CEM/VBL100 cells; experiment: Cytotoxicity by Trypan blue assay on CEM/VBL100 cells; format: cell-based; settings: CEM/VBL100, 24 h
Experimental: Increasing concentrations of VBL alone and loaded into the plant nanovesicles were used to assess the cytotoxic effect on CEM and CEM/VBL100 leukaemic cells by Trypan blue assay after 48 and 24 h of incubation, respectively. A) The cytotoxic effect on CEM cells starts to be evident at a concentration of 1000 ng/mL and is enhanced in VBL loaded in the plant nanovesicles (2.6-fold higher than in VBL alone).

human melanoma cells = experiment: Transfer of AO to tumour cells, spectrofluorimeter; format: cell-based; settings: AO 0.1 pg/mL; cells cultured in unbuffered medium
Source text: Acridine orange was not activated with blue light.

Structure (SMILES)	mortality at 0.0001 µg/mL [1] [%]	percentage of AO transferred to tumour cells (human melanoma cells)
CC[C@]1(O)C[C@@H]2CN(CCc3c([nH]c4ccccc34)[C@@](C(=O)OC)(c3cc4c(cc3OC)N(C)[C@H]3[C@@](O)(C(=O)OC)[C@H](OC(C)=O)[C@]5(CC)C=CCN6CC[C@]43[C@@H]65)C2)C1 [VBL, vinblastine]	0.7	
CN(C)c1ccc2cc3ccc(N(C)C)cc3nc2c1 [AO, Acridine Orange]		significantly reduced
